The source of these data is patent US20090062403A1, “Compositions and Methods for Treatment of Disorders of Protein Aggregation” (priority 2004, published 2009).

Test [1] has as its system TgCRND8 mice. Kind of test: Morris Water Maze spatial reference memory test in TgCRND8 mice. As to conditions: TgCRND8 mice, oral treatment for 28 days from 5 months of age, tested at 6 months. Type of test: in vivo, mouse.
Test [2] deals with Aβ oligomers. As to conditions: positive control, previously shown; cited from earlier work.
Test [3] deals with TgCRND8 mice. Nature of the test: Pilot in vivo studies. Also noted: species or system mouse. As to conditions: data not shown. The text has this: The TgCRND8 mice and non-transgenic littermates were assigned to sex- and age-matched cohorts that were then used to test the effectiveness of the cyclohexanehexol stereoisomers as a therapeutic (with treatment delayed until five months of age and continued for one month until six months of age). […] The endpoints were cognitive function, brain Aβ levels, and neuropathology. […] Over the course of these experiments, observers were unaware of genotype or treatment group.

The target of test [4] is T1, Aβ (Homo sapiens, UniProt P05067).
T1 construct: neurotoxic oligomeric/protofibrillar aggregates of amyloid β-peptide (Aβ)
As to conditions: reference [16]; cited from earlier work.

T1 sequence (P05067 672-713 limits assumed): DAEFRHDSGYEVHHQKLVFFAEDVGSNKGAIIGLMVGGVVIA

As to `OC1C(O)C(O)C(O)C(O)C1O` (stereo not drawn) [Epi-cyclohexanehexol, 1,2,3,4,5/6-(epi-) cyclohexanehexol, reference compound], in test [1], the “Spatial learning performance (Morris Water Maze) compared to untreated TgCRND8 littermates” value is given as “not significantly different from that of untreated TgCRND8 littermates”. As to `Oc1cccc(Nc2ccc(Nc3cccc(O)c3)nn2)c1` [RS0406], the “production of oligomers when added pre-cond” value in test [2] is “reduces the production of oligomers”. In the case of `O[C@H]1[C@H](O)[C@@H](O)[C@H](O)[C@@H](O)[C@H]1O` [myo-cyclohexanehexol, 1,2,3,5/4,6-(myo-)cyclohexanehexol], in test [3], the “benefit in pilot in vivo studies” value was “no significant benefit”. For the same compound, the “effectiveness in prior in vitro studies” value in test [4] is given as “only weakly effective”.
